{
  "source": "patent US6773803B2",
  "about": "“Far-infrared emission powder with antibacterial activity and bio-wave steel plate coated with resin containing same” (Posco, priority 2000, dated 2004)",
  "data": [
    {"assay": "pH of aqueous solution after adding 30 g powder to 100 g water", "format": "physicochemical", "conditions": "powder dissolved in distilled water, result in words", "experimental": "After the addition of the alkaline oxides or hydroxides, the aqueous solutions were measured for pH and the results are given in Table 1.", "values": [
      {"smiles": "[O]=[Al][O][Al]=[O]", "note": "[Material No. C. 2, Al2O3]", "influence on the pH of the distilled water": "no influence on the pH"},
      {"smiles": "O=[Si]=O", "note": "[Material No. C. 3, SiO2]", "influence on the pH of the distilled water": "no influence on the pH"},
      {"smiles": "[O]=[Ti]=[O]", "note": "[Material No. C. 1, TiO2]", "influence on the pH of the distilled water": "no influence on the pH"}
    ]}
  ]
}
